From patent publication EP0184291B1, “Polyether antibiotic A80190” (ELI LILLY AND COMPANY, priority 1984, dated 1986)
Where a SMILES comes first, the peptide text is derived from it. Bridges are numbered along the chain shown (N, C = ends). [ ]: non-standard residue; d: D form. The star is where a group is joined. Ileψ(thiazoline)Cys = CC[C@H](C)[C@H](N)C1=N[C@H](C(=O)*)CS1; dOrn = NCCC[C@@H](N)C(=O)O

Experiments:
NRRL 15878 = assay: Resistance to antibiotics, sensitivity discs on seeded ISP No. 2 agar; assay type: cell-based, Actinomadura oligospora
Method: (§1) Resistance to antibiotics was measured by padding antibiotic sensitivity discs onto the surface of seeded ISP No. 2 agar plates.
(§2) Table III lists the resistance of the strain to various antibiotics at the concentrations indicated and compares it to that of A. macra.

A. macra = assay: as above; assay type: cell-based
Method: as §1, §2

Compound: Gentamicin
- Resistance to Antibiotics (NRRL 15878; Concentration 10 µg): -
- Resistance to Antibiotics (A. macra; Concentration 10 µg): -

Compound: CN(C)[C@@H]1C(O)=C(C(N)=O)C(=O)[C@@]2(O)C(O)=C3C(=O)c4c(O)cccc4[C@@](C)(O)[C@H]3C[C@@H]12 [Tetracycline]
- Resistance to Antibiotics (A. macra; Concentration 30 µg): -

Compound: CC(=O)OCC1=C(C(=O)O)N2C(=O)[C@@H](NC(=O)Cc3cccs3)[C@H]2SC1 [Cephalothin]
- Resistance to Antibiotics (A. macra; Concentration 30 µg): +

Compound: CN[C@H](CC(C)C)C(=O)N[C@H]1C(=O)N[C@@H](CC(N)=O)C(=O)N[C@H]2C(=O)N[C@H]3C(=O)N[C@H](C(=O)N[C@H](C(=O)O)c4cc(O)cc(O)c4-c4cc3ccc4O)[C@H](O)c3ccc(c(Cl)c3)Oc3cc2cc(c3O[C@@H]2O[C@H](CO)[C@@H](O)[C@H](O)[C@H]2O[C@H]2C[C@](C)(N)[C@H](O)[C@H](C)O2)Oc2ccc(cc2Cl)[C@H]1O [Vancomycin]
- Resistance to Antibiotics (NRRL 15878; Concentration 30 µg): -
- Resistance to Antibiotics (A. macra; Concentration 30 µg): -

Compound: [H]/N=C(/N)N[C@H]1[C@H](O)[C@@H](O)[C@H](O[C@@H]2O[C@@H](C)[C@](O)(C=O)[C@H]2O[C@@H]2O[C@@H](CO)[C@H](O)[C@@H](O)[C@@H]2NC)[C@@H](N/C(N)=N\[H])[C@@H]1O [Streptomycin]
- Resistance to Antibiotics (A. macra; Concentration 10 µg): +

Compound: CC[C@H](C)[C@H](N)C1=N[C@H](C(=O)N[C@@H](CC(C)C)C(=O)N[C@H](CCC(=O)O)C(=O)N[C@H](C(=O)N[C@H]2CCCCNC(=O)[C@H](CC(N)=O)NC(=O)[C@@H](CC(=O)O)NC(=O)[C@H](Cc3cnc[nH]3)NC(=O)[C@@H](Cc3ccccc3)NC(=O)[C@H]([C@@H](C)CC)NC(=O)[C@@H](CCCN)NC2=O)[C@@H](C)CC)CS1 [Bacitracin] ({Ileψ(thiazoline)Cys}-L[dE]IK[dOrn]I[dF]H[dD]N; lactam 4-C)
- Resistance to Antibiotics (NRRL 15878; Concentration 10 units): +
- Resistance to Antibiotics (A. macra; Concentration 10 units): -

Compound: CO[C@H]1/C=C/O[C@@]2(C)Oc3c(C)c(O)c4c(O)c(c(/C=N/N5CCN(C)CC5)c(O)c4c3C2=O)NC(=O)/C(C)=C\C=C\[C@H](C)[C@H](O)[C@@H](C)[C@@H](O)[C@@H](C)[C@H](OC(C)=O)[C@@H]1C [Rifampin]
- Resistance to Antibiotics (A. macra; Concentration 5 µg): +

Compound: CC1(C)S[C@@H]2[C@H](NC(=O)Cc3ccccc3)C(=O)N2[C@H]1C(=O)O [Pencillin G]
- Resistance to Antibiotics (A. macra; Concentration 10 units): +
